Counter-ions that a name gives are not always drawn. Like-named read-outs stand apart in the source and are kept apart here.
Columns and labels:
[1] = test system: CALU6 (Lung); assay: In vitro combination study for selected compounds, additional cell lines; format: cell-based; settings: drug combined with Compound 1
Method: (§1) In vitro anti-proliferative effects of selected compounds were tested in additional cell lines, including ovarian cancer (SKOV3) and pancreatic cancer (MIA-PACA-2) cell lines.

[2] = test system: H-1650 (Lung); assay: as above; format: cell-based; settings: drug combined with Compound 1
Method: as §1

[3] = test system: PHTXS-13O human primary ovarian cancer xenografts; assay: In vivo combination study, Patient Derived Xenograft; set-up: species or system mouse; settings: for Result (combination with Compound 1, tumor growth): PHTXS-13O (170 mm^3) FIG. 4A
Method: (§2) To investigate in vivo antitumor activity of Compound 1 in combination with other agents, tests using Cell Derived Xenograft (CDX), Patient Derived Xenograft (PDX) and Syngeneic mouse tumor isograft model were conducted. Cells or Patient Derived Tumors were inoculated by one method of the following two methods (Method A and B) as shown Table 7.
(§3) Method A; Cells were maintained in either immune deficient nude mice or immune competent mice by subcutaneous inoculation of tumor cells at various concentrations into respected mice. Method B: Patient Derived Tumor s were maintained in nude mice by subcutaneous inoculation of tumor pieces (approx. 2×2×2 mm) into nude mice. Mice with tumor size of approximately 50 mm^3 (e.g., 40-75 mm^3) for syngeneic mouse studies or 200 mm^3 (e.g., 110-270 mm^3) for xenograft studies were randomly assigned to dose groups on the day (Day 0) before start date of dosing.
(§4) Compound 1 (crystalline form I) was suspended in 0.5 w/v % methylcellulose and administered orally to mice. Antibodies which administered in the experiment were described in Table 8.
(§5) Tumor size was measured by caliper and tumor volume was estimated using the equation V=(LW^2)/2, where L and W are tumor length and width, respectively and reported in cubic millimeters.
(§6) These values were compared across treatment groups to assess whether the differences in the trends over time were statistically significant. To compare pairs of treatment groups, the following mixed-effects linear regression model was fit to the data using the maximum likelihood method:
(§7) For synergy analyses, the observed differences in the log tumor values were used to calculate AUC values for each animal. In instances when an animal in a treatment group was removed from the study, the last observed tumor value was carried forward through all subsequent time points. The AUC for the control, or vehicle, group was calculated using the predicted values from the pairwise models described above. We defined a measure of synergy as follows:
(§8) where Ak and Bk are the k^th animal in the individual treatment groups and ABk is the k^th animal in combination treatment group. AUCcd is the model-predicted AUC for the control group and was treated as a constant with no variability. The standard error of the synergy score was calculated as the square root of the sum of squared standard errors across groups A, B, and AB. The degrees of freedom were estimated using the Welch-Satterthwaite equation. A hypothesis test was performed to determine if the synergy score differed from 0. P values were calculated by dividing the synergy score by its standard error and tested against a t-distribution (two-tailed) with the above-calculated degrees of freedom.
(§9) The effect was classified into four different categories. It was considered synergistic if the synergy score was less than 0 and additive if the synergy score wasn't statistically different from 0. If the synergy score was greater than zero, but the mean AUC for the combination was lower than the lowest mean AUC among the two single agent treatments, then the combination was sub-additive. If the synergy score was greater than zero, and the mean AUC for the combination was greater than the mean AUC for at least one of the single agent treatments, then the combination was antagonistic.

[4] = test system: HCT116 cancer cells; assay: In vitro combination study with Compound 1, Cell Titer-Glo (ATP) cell viability, 72 h; format: cell-based;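 further: combination call from 10×10 dose matrices in duplicate, graded by synergy, with percent activity per well relative to DMSO vehicle controls on the same plate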
Method: (§10) Each combination pair was evaluated in an individual 384-well plate which contained variable doses of both compounds as single agents, as well as two, ten-by-ten matrices (in duplicate) that contained mixtures of the two test compounds. In brief, compounds were added to the cell test plates 16 hours after cell plating and then assessed for viability 72 hours later. Continuous cultures of tumor cells were maintained under standard cell culturing conditions (i.e. in a humidified chamber set at 37° C., containing atmosphere 5% carbon dioxide). […] Seventy-two hours after compound addition, ATP levels were measured to assess cell viability. Plating densities were chosen to ensure optimal linear growth over the 72 hour period.
(§11) Compound dilution and compound delivery to the assay plates were done on HighRes Robotic System (HighRes Biosolutions, Woburn, Mass., USA) with Echo™ Liquid Handler (Labcyte, Sunnyvale, Calif., USA). […] Next, these were used for compound transfer into cell assay plates. All wells were back-filled to give a constant percentage of DMSO.
(§12) The final DMSO concentration was held constant in all wells across the plate and was maintained at less than 0.5%. […] Cells treated with vehicle (DMSO) in two rows, or single compound serial dilutions in one plate columns/row served as the untreated control and single compound controls, respectively.
(§13) Compound activity in A549, COLO205, H460, HCT116, SW48, SW620 cancer cell lines was assessed using Cell Titer-Glo® (Promega [Madison, Wis., USA]). After 72 hours incubation, the plates were treated as per package insert protocol for the Promega Luminescence ATP Detection Systems. Briefly, 25 μL of cell lysis/substrate solution (provided in kit form) was added to each well and the plate was incubated at room temperature for 10 minutes. Luminescence was measured using a PHERAstar multi-label counter (BMG Labtech [Ortenberg, Germany]) or LEADseeker (GE Healthcare Life Sciences [Piscataway, N.J., USA]).
(§14) Numerical luminescence values were analyzed to generate EC50 curves and evaluate synergy. Raw Data reader files were uploaded along with automation workfiles that defined the plate and well contents. Percent activities were calculated for each well versus plate controls.
(§15) Each plate representing a single drug combination was analyzed separately. First, the viability measurements were normalized by scaling the data so that the median of the negative controls was 0 and the median of the positive controls was 100.
(§16) For the combination analysis, a response surface model was used to describe the relationship between the normalized viability and the drug concentrations. The data were fit to the model by minimizing the residual sum of squares. Based on the fitted response surface, plots of constant viability, called isobolograms, were produced.
(§17) The Combination Index and Nonlinear Blending were used as measures of drug synergy. To calculate Combination Index the 50% isobologram (which is the dose contour that has 50% viability) was used. […] A standard procedure was created to produce a call in order to characterize the viability effects for each combination (synergy, additivity, subadditivity, or antagonism). If the Combination Index existed then these measures were used to make the call.

[5] = test system: SW48 cancer cells; assay: as above; format: cell-based
Method: as §10
Compound dilution and compound delivery to the assay plates were done on HighRes Robotic System (HighRes Biosolutions, Woburn, Mass., USA) with Echo™ Liquid Handler (Labcyte, Sunnyvale, Calif., USA). First, 384-well low dead volume (LDV) plates containing DMSO (Appendix B) and 10 mM compound stock solutions were used to create the required intermediate compound dilution plates. Next, these were used for compound transfer into cell assay plates. All wells were back-filled to give a constant percentage of DMSO.
as §12, §13, §14, §15, §16, §17

[6] = test system: H460 cancer cells; assay: as above; format: cell-based;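 further: Ten-by-ten dose matrices of both drugs alongside single-agent dilutions, luminescence read 72 hours after compound addition, percent activity per well versus vehicle (DMSO) plate controls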
Method: as §10, §11, §12, §13, §14, §15, §16, §17

[7] = test system: ovarian cancer (SKOV3) cell line; assay: In vitro combination study for selected compounds, additional cell lines; format: cell-based; settings: drug combined with Compound 1
Method: as §1

[8] = test system: SW620 cancer cells; assay: In vitro combination study with Compound 1, Cell Titer-Glo (ATP) cell viability, 72 h; format: cell-based;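 further: Ten-by-ten dose matrices of both drugs in 384-well plates, luminescent ATP read-out, synergy evaluated against single-agent and DMSO vehicle controls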
Method: as §10, §11, §12, §13, §14, §15, §16, §17

[9] = test system: PHTXM-35Es human primary esophagus cancer xenografts; assay: In vivo combination study, Patient Derived Xenograft; set-up: species or system mouse; settings: PHTXM-35Es (240 mm^3); Compound 1 60 mg/kg once daily Day 1-21; drug 10 mg/kg intraperitoneally Days 1,5,9,13,17,21
Method: as §2, §3, §4, §5, §6, §7, §8, §9

[10] = test system: PHTX-249Pa human primary pancreatic xenografts; assay: as above; set-up: species or system mouse; settings: PHTX-249Pa (195 mm^3)
Method: as §2, §3, §4, §5, §6, §7, §8, §9

[11] = test system: PHTXM-97Pa (Pancreatic); assay: as above; set-up: species or system mouse; settings: PHTXM-97Pa (180 mm^3)
Method: as §2, §3, §4, §5, §6, §7, §8, §9

[12] = test system: PHTXM-90Es (Esophagus); assay: as above; set-up: species or system mouse; settings: PHTXM-90Es (185 mm^3); Compound 1 60 mg/kg once daily Day 1-21; drug 10 mg/kg intraperitoneally Days 1,5,9,13,17,21
Method: as §2, §3, §4, §5, §6, §7, §8, §9

[13] = test system: PHTXM-79Es human primary esophagus cancer xenografts; assay: as above; set-up: species or system mouse
Method: as §2, §3, §4, §5, §6, §7, §8, §9

[14] = test system: COLO205 cancer cells; assay: In vitro combination study with Compound 1, Cell Titer-Glo (ATP) cell viability, 72 h; format: cell-based, human;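 further: Ten-by-ten dose matrices of both agents in duplicate plus single-agent dilutions, luminescent ATP read-out, percent activity per well relative to DMSO vehicle wells, synergy call from these matrices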
[15] = test system: pancreatic cancer (MIA-PACA-2) cell line; assay: In vitro combination study for selected compounds, additional cell lines; format: cell-based; settings: drug combined with Compound 1
Method: as §1

[16] = test system: A549 cancer cells; assay: In vitro combination study with Compound 1, Cell Titer-Glo (ATP) cell viability, 72 h; format: cell-based;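 further: Ten-by-ten dose matrices of the two agents in duplicate, compounds added 16 h post-plating, activity relative to DMSO vehicle wells, call reflects synergy evaluation from luminescence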
Method: as §10, §11, §12, §13, §14, §15, §16, §17

[17] = DNA damaging agent combined with Compound 1, 72 h
[18] = Compound 1 20 mg/kg once daily Day 1-21, drug 5 mg/kg intraperitoneally Days 1,5,9,13,17,21
[19] = Compound 1 20 mg/kg once daily Day 1-21, drug 10 mg/kg intraperitoneally Days 1,5,9,13,17,21
[20] = Compound 1 40 mg/kg once daily Day 1-21, drug 5 mg/kg intraperitoneally Days 1,5,9,13,17,21
[21] = Compound 1 40 mg/kg once daily Day 1-21, drug 10 mg/kg intraperitoneally Days 1,5,9,13,17,21

SMILES | In vitro combination effect with Compound 1, Lung CALU6 [1] | In vitro combination effect with Compound 1, Lung H-1650 [2] | Call, anti-proliferative effect of combination with Compound 1, HCT116 [4, 17] | Call, anti-proliferative effect of combination with Compound 1, SW48 [5, 17] | Call, anti-proliferative effect of combination with Compound 1, H460 [6, 17] | In vitro combination effect with Compound 1, Ovary SKOV3 [7] | Call, anti-proliferative effect of combination with Compound 1, SW620 [8, 17] | In vitro combination effect with Compound 1, Pancreas MIA-PACA-2 [15] | Call, anti-proliferative effect of combination with Compound 1, COLO205 [14, 17] | other results
N.N.O=C([O-])C1(C(=O)[O-])CCC1.[Pt+2] [Carboplatin] | Additive | Additive | Synergy (0 to 0.7) | Additivity (0.7 to 1.3) | Synergy (0 to 0.7) |  |  |  |  | Result (combination with Compound 1, tumor growth) ([3]; Compound 1 40 mg/kg once daily Day 1-14, drug 30 mg/kg intraperitoneally Days 1,5,9,13): Additive; Result (combination with Compound 1, tumor growth) ([3]; Compound 1 40 mg/kg once daily Day 1-14, drug 50 mg/kg intraperitoneally Days 1,5,9,13): Additive; Result (combination with Compound 1, tumor growth) ([3]; Compound 1 60 mg/kg once daily Day 1-14, drug 30 mg/kg intraperitoneally Days 1,5,9,13): Additive; Result (combination with Compound 1, tumor growth) ([3]; Compound 1 60 mg/kg once daily Day 1-14, drug 50 mg/kg intraperitoneally Days 1,5,9,13): Additive; antitumor activity ([3]; combined with Compound 1, PHTXS-13O human primary ovarian cancer xenografts, FIG. 4A): strong antitumor activity compared to either single treatment alone
N.N.[Cl][Pt][Cl] [Cisplatin] | Additive | Additive | Synergy (0 to 0.7) | Additivity (0.7 to 1.3) | Synergy (0 to 0.7) | Additive | Synergy (0 to 0.7) |  |  | 
CCc1c2c(nc3ccc(OC(=O)N4CCC(N5CCCCC5)CC4)cc13)-c1cc3c(c(=O)n1C2)COC(=O)[C@]3(O)CC [Irinotecan (CPT-11), Irinotecan] |  |  |  |  |  |  |  |  |  | Result (combination with Compound 1, tumor growth) [9]: Additive; Result (combination with Compound 1, tumor growth) [10, 18]: Additive; Result (combination with Compound 1, tumor growth) [10, 19]: Additive; Result (combination with Compound 1, tumor growth) [10, 20]: Additive; Result (combination with Compound 1, tumor growth) [10, 21]: Additive; Result (combination with Compound 1, tumor growth) [11, 18]: Additive; Result (combination with Compound 1, tumor growth) [11, 19]: Additive; Result (combination with Compound 1, tumor growth) [11, 20]: subadditive; Result (combination with Compound 1, tumor growth) [11, 21]: subadditive; Result (combination with Compound 1, tumor growth) [12]: Synergistic; Result (combination with Compound 1, tumor growth) ([13]; PHTXM-79Es (160 mm^3) FIG. 5B, Compound 1 60 mg/kg once daily Day 1-21, drug 10 mg/kg intraperitoneally Days 1,5,9,13,17,21): Additive; antitumor activity ([13]; combined with Compound 1, PHTXM-79Es human primary esophagus cancer xenografts, FIG. 5B): strong antitumor activity compared to either single treatment alone
O=C1[O][Pt]2([NH][C@@H]3CCCC[C@H]3[NH]2)[O]C1=O [Oxaliplatin] | Additive | Additive |  |  |  | Additive |  |  |  | Call, anti-proliferative effect of combination with Compound 1, HCT116 [4]: Additivity (key: Inconclusive: Any; Additivity: 0.7 to 1.3; Synergy: 0 to 0.7; Subadditivity: 1.3 to 2; Antagonism: >2); Call, anti-proliferative effect of combination with Compound 1, SW620 [8]: Synergy (key: Inconclusive: Any; Additivity: 0.7 to 1.3; Synergy: 0 to 0.7; Subadditivity: 1.3 to 2; Antagonism: >2); Call, anti-proliferative effect of combination with Compound 1, SW48 [5]: Additivity (key: Inconclusive: Any; Additivity: 0.7 to 1.3; Synergy: 0 to 0.7; Subadditivity: 1.3 to 2; Antagonism: >2); Call, anti-proliferative effect of combination with Compound 1, COLO205 [14]: Synergy (key: Inconclusive: Any; Additivity: 0.7 to 1.3; Synergy: 0 to 0.7; Subadditivity: 1.3 to 2; Antagonism: >2); Call, anti-proliferative effect of combination with Compound 1, H460 [6]: Additivity (key: Inconclusive: Any; Additivity: 0.7 to 1.3; Synergy: 0 to 0.7; Subadditivity: 1.3 to 2; Antagonism: >2)
CCc1c2c(nc3ccc(O)cc13)-c1cc3c(c(=O)n1C2)COC(=O)[C@]3(O)CC [SN-38] |  | Additive | Synergy (0 to 0.7) | Additivity (0.7 to 1.3) | Synergy (0 to 0.7) | Additive | Synergy (0 to 0.7) | Additive | Additivity (0.7 to 1.3) | Call, anti-proliferative effect of combination with Compound 1, A549 [16]: Synergy (key: Inconclusive: Any; Additivity: 0.7 to 1.3; Synergy: 0 to 0.7; Subadditivity: 1.3 to 2; Antagonism: >2)
CC[C@@]1(O)C(=O)OCc2c1cc1n(c2=O)Cc2cc3c(CN(C)C)c(O)ccc3nc2-1 [Topotecan hydrochloride] |  | Additive | Synergy (0 to 0.7) | Additivity (0.7 to 1.3) | Synergy (0 to 0.7) | Additive | Synergy (0 to 0.7) | Additive | Synergy (0 to 0.7) | Call, anti-proliferative effect of combination with Compound 1, A549 [16, 17]: Synergy (0 to 0.7)

— patent publication US20220323443A1, “COMBINATION THERAPY FOR CANCER TREATMENT” (TAKEDA PHARMACEUTICAL COMPANY LIMITED, priority 2019, published 2022)
